From US9255094B2, “Pyrido[4,3-B]indoles and methods of use” (Medivation Technologies, Inc., priority 2009, dated 2016)

Assays:
[1] = target: T1, human recombinant serotonin (5-Hydroxytryptamine) 5-HT2A receptor (Homo sapiens, UniProt P28223); assay: Serotonin 5-HT2A radioligand binding assay ([3H]Ketanserin); conditions: compound at 1 μM; 0.5 nM [3H]Ketanserin; CHO-K1 cells; read-out: Percent Inhibition of ligand binding, Serotonin (1 μM) 5-HT2A
T1 construct: expressed in transfected cells; host or cells: Chinese hamster ovary (CHO-K1) cells
T1 sequence (P28223 whole entry): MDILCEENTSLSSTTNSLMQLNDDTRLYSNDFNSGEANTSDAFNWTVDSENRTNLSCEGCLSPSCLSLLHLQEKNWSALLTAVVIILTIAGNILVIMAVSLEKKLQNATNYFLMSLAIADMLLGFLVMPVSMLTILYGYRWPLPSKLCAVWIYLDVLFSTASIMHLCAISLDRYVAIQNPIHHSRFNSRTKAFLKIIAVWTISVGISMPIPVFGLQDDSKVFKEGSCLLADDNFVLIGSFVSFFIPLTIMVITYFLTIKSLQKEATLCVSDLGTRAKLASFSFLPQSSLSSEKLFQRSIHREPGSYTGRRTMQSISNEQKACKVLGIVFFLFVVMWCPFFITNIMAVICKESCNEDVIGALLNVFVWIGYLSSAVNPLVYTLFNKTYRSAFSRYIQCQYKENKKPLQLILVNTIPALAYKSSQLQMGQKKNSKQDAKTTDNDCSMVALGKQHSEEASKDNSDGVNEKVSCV
Procedure: (§1) Compounds of the invention were incubated with 0.5 nM [^3H]Ketanserin for 60 min at 25° C. Non-specific binding was estimated in the presence of 1 μM Mianserin. Receptor proteins were filtered and washed, the filters were then counted to determine [^3H]Ketanserin specifically bound. Compounds were screened at 1 μM or lower, using 1% DMSO as vehicle. Biochemical assay results are presented as the percent inhibition of specific binding in Table 4.

[2] = target: human recombinant serotonin (5-Hydroxytryptamine) 5-HT7 receptor (Homo sapiens, UniProt P34969); assay: Serotonin 5-HT7 radioligand binding assay ([3H]LSD); conditions: compound at 1 μM; 5.5 nM [3H]LSD; CHO cells; read-out: Percent Inhibition of ligand binding, Serotonin (1 μM) 5-HT7
Chain of human recombinant serotonin (5-Hydroxytryptamine) 5-HT7 receptor (P34969 whole entry): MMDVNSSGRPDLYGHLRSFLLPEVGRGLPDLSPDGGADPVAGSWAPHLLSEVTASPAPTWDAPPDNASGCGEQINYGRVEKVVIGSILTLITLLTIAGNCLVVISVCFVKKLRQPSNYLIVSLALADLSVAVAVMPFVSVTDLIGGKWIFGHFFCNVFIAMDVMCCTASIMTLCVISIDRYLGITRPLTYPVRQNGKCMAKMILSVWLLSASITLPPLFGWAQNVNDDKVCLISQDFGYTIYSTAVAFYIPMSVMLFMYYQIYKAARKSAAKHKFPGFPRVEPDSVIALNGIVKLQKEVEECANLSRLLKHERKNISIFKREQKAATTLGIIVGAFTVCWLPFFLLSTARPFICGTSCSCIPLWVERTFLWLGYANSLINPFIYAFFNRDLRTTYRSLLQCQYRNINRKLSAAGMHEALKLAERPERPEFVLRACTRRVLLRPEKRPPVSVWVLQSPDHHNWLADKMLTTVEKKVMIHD
Procedure: Compounds of invention were incubated with 5.5 nM [^3H] Lysergic acid diethylamide (LSD) for 2 h at 25° C. […] Receptor proteins were filtered and washed, the filters were then counted to determine [^3H]LSD specifically bound. Compounds were screened at 1 μM or lower, using 1% DMSO as vehicle. Biochemical assay results are presented as the percent inhibition of specific binding in Table 4.

[3] = target: T2, human recombinant histamine H2 receptor (Homo sapiens, UniProt P25021); assay: Histamine H2 radioligand binding assay ([125I]Aminopotentidine); conditions: compound at 1 μM; 0.1 nM [125I]Aminopotentidine; receptor expressed in CHO-K1 cells
T2 construct: expressed in transfected cells; host or cells: Chinese hamster ovary (CHO) K1 cells
T2 sequence (P25021 whole entry): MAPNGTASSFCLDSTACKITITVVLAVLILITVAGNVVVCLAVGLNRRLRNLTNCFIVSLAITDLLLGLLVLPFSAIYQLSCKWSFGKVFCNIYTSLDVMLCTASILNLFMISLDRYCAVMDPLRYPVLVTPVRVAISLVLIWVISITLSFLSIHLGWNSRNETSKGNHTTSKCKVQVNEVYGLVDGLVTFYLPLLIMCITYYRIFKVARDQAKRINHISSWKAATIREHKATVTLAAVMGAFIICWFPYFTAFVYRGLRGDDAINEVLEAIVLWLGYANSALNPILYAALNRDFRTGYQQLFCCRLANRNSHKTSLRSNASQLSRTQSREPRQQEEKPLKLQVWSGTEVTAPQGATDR
Procedure: To evaluate in radioligand binding assays the activity of compounds of the invention, human recombinant histamine H2 receptor expressed in Chinese hamster ovary (CHO) K1 cells (Ruat, M., Proc. Natl. Acad. Sci. USA. 87(5):1658, 1990) in a 50 mM Phosphate buffer, pH 7.4 was used. Compounds of the invention were incubated with 0.1 nM [^125I]Aminopotentidine for 120 min at 25° C. Non-specific binding was estimated in the presence of 3 μM Tiotidine. Receptor proteins were filtered and washed, the filters were then counted to determine [^125I]Aminopotentidine specifically bound. Compounds were screened at 1 μM or lower, using 1% DMSO as vehicle. Biochemical assay results are presented as the percent inhibition of specific binding in Table 2.

[4] = target: human recombinant dopamine D2L receptor (Homo sapiens, UniProt P14416); assay: Dopamine D2L radioligand binding assay ([3H]Spiperone); conditions: compound at 1 μM, 0.16 nM [3H]Spiperone, CHO cells, read-out: Percent Inhibition of ligand binding, Dopamine (1μM)
Chain of human recombinant dopamine D2L receptor (P14416 whole entry): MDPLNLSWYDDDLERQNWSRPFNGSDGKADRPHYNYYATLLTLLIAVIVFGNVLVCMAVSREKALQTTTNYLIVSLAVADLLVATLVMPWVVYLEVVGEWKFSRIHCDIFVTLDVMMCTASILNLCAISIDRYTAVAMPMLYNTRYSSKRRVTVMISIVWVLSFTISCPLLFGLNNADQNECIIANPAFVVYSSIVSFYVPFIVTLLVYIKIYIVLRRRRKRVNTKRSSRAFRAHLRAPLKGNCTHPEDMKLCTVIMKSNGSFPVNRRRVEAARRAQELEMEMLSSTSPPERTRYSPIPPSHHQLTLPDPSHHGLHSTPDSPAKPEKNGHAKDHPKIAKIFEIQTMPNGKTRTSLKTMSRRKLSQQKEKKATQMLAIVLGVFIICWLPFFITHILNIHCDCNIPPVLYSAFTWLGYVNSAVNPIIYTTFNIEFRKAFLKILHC
Procedure: Compounds of the invention were incubated with 0.16 nM [^3H]Spiperone for 120 min at 25° C. Non-specific binding was estimated in the presence of 10 μM Haloperidol. Receptor proteins were filtered and washed, the filters were then counted to determine [^3H]Spiperone specifically bound. Compounds were screened at 1 μM or lower, using 1% DMSO as vehicle. Biochemical assay results are presented as the percent inhibition of specific binding in Table 3.

[5] = target: T3, human recombinant serotonin (5-Hydroxytryptamine) 5-HT6 receptor (Homo sapiens, UniProt P50406); assay: Serotonin 5-HT6 radioligand binding assay ([3H]LSD); conditions: compound at 1 μM, HeLa cells, read-out: Percent Inhibition of ligand binding, Serotonin (1 μM) 5-HT6
T3 construct: expressed in transfected cells; host or cells: human HeLa cells
T3 sequence (P50406 whole entry): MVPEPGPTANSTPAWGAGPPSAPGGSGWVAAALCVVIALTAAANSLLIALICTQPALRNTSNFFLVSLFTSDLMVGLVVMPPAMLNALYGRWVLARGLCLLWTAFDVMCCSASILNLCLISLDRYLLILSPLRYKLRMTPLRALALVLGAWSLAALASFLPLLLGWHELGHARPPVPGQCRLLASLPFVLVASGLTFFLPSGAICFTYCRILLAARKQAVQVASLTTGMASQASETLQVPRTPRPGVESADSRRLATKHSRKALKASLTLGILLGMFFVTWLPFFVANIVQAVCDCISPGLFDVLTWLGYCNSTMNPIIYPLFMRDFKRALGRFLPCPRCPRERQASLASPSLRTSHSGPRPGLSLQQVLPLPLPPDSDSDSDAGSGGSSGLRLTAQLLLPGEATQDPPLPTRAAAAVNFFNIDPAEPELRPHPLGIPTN
Procedure: Compounds of the invention were incubated with 1.5 nM [3H]Lysergic acid diethylamide (LSD) for 120 min at 37° C. […] Receptor proteins were filtered and washed, the filters were then counted to determine [3H]LSD specifically bound. Compounds were screened at 1 μM or lower, using 1% DMSO as vehicle. Biochemical assay results are presented as the percent inhibition of specific binding in Table 4.

[6] = target: human recombinant histamine H1 receptor (Homo sapiens, UniProt P35367); assay: Histamine H1 radioligand binding assay ([3H]Pyrilamine); conditions: compound at 1 μM, receptor expressed in CHO cells
Chain of human recombinant histamine H1 receptor (P35367 whole entry): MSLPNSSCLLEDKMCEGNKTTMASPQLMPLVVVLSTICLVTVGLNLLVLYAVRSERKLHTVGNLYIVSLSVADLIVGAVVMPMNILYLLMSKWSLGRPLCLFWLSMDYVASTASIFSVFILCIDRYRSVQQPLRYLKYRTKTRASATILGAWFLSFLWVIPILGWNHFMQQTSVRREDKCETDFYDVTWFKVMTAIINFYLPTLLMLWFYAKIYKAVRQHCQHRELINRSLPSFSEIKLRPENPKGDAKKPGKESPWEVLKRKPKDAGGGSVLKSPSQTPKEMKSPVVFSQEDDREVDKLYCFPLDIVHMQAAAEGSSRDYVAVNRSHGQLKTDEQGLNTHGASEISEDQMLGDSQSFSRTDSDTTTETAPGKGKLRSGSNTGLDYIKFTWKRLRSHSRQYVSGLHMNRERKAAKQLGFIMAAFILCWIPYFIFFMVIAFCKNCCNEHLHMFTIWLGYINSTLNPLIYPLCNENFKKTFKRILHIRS
Procedure: To evaluate in radioligand binding assays the activity of compounds of the invention, human recombinant histamine H1 receptor expressed in Chinese hamster ovary (CHO) cells (De Backer, M. D. et al., Biochem. Biophys. Res. Comm. 197(3):1601, 1993) in a modified Tris-HCl buffer (50 mM Tris-HCl, pH 7.4, 2 mM MgCl2, 100 mM NaCl, 250 mM Sucrose) was used. Compounds of the invention were incubated with 1.2 nM [^3H]Pyrilamine for 180 min at 25° C. Non-specific binding was estimated in the presence of 1 μM pyrilamine Receptor proteins were filtered and washed, the filters were then counted to determine [^3H]Pyrilamine specifically bound. Compounds were screened at 1 μM or lower, using 1% DMSO as vehicle. Biochemical assay results are presented as the percent inhibition of specific binding in Table 2.

[7] = target: T4, human recombinant serotonin (5-Hydroxytryptamine) 5-HT2C receptor (Homo sapiens, UniProt P28335); assay: Serotonin 5-HT2C radioligand binding assay ([3H]Mesulergine); conditions: compound at 1 μM; 1 nM [3H]Mesulergine; CHO-K1 cells; read-out: Percent Inhibition of ligand binding, Serotonin (1 μM) 5-HT2C
T4 construct: expressed in transfected cells; host or cells: Chinese hamster ovary (CHO-K1) cells
T4 sequence (P28335 33-458): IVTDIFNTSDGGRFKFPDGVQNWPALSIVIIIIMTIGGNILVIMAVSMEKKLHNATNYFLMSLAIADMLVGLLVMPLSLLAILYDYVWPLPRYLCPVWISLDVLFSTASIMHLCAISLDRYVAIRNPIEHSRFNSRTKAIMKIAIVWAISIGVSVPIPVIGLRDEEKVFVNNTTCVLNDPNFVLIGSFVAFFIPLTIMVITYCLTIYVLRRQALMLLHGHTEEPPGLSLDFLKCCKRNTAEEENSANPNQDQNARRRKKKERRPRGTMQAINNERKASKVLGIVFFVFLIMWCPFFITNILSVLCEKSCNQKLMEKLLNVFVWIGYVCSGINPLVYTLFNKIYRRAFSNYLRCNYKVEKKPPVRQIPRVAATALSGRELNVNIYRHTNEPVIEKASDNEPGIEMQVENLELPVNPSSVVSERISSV
Procedure: as §1, with “1” for “0.5”, “[^3H]Mesulergine” for “[^3H]Ketanserin”

Question: `Cc1ccc2c(c1)c1c(n2CCc2ccc(C)nc2)CCN(CCCCO)C1` [Compound 1-43, 4-(8-methyl-5-(2-(6-methylpyridin-3-yl)ethyl)-3,4-dihydro-1H-pyrido[4,3-b]indol-2(5H)-yl)butan-1-ol] was tested. Which inhibition at 1 µM [1] did it give?
Answer: 47%

Question: What about the inhibition at 1 µM [2] of the same compound?
Answer: 66%

Question: And the inhibition at 1 µM [3]?
Answer: 21%

Question: What about the inhibition at 1 µM [4] of the same compound?
Answer: 10%

Question: What about the inhibition at 1 µM [5] of the same compound?
Answer: 22%

Question: What about the inhibition at 1 µM [6] of the same compound?
Answer: 97%

Question: What about the inhibition at 1 µM [7] of the same compound?
Answer: 49%
